Measured values reported in ChEMBL document CHEMBL1201862, “PubChem BioAssay data set” (2004).
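Cultured in 96-well plates, cells were exposed to test compound for 48 hours across five concentrations. GI50 marks 50% less growth.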 Calls of active or inactive are those of the source. No stated cut-off is given here; in the data, active = GI50 up to about 1.1 µM and inactive = higher. Where a SMILES comes first, the peptide text is derived from it. The star is where a group is joined. Boc = CC(C)(C)OC(=O)*; OBn = c1ccc(CO*)cc1

Columns and labels:
Test in all cases: NCI tumour cell line growth inhibition, 48 h
[1] = system: A498
[2] = system: TK-10
[3] = system: ACHN
[4] = system: LOX IMVI
[5] = system: U-251
[6] = system: OVCAR-8
[7] = system: K562
[8] = system: SNB-19
[9] = system: BT-549
[10] = system: OVCAR-3
[11] = system: NCI/ADR-RES
[12] = system: COLO 205
[13] = system: SK-MEL-28
[14] = system: CCRF-CEM
[15] = system: NCI-H226
[16] = system: NCI-H522
[17] = system: Hs-578T
[18] = system: MCF7
[19] = system: SF-539
[20] = system: OVCAR-4

Measured: GI50

C=C(CN)CO[Si](C)(C)C(C)(C)C
inactive: [1] > 100 µM | [2] 77.1 µM | [3] > 100 µM | [4] > 100 µM | [5] > 100 µM | [6] > 100 µM | [7] > 100 µM | [8] > 100 µM | [9] > 100 µM | [10] > 100 µM | [11] > 100 µM | [12] > 100 µM | [13] > 100 µM | [14] > 100 µM | [15] > 100 µM | [16] > 100 µM | [17] > 100 µM | [18] > 100 µM | [19] > 100 µM

Cc1cc(OC(=O)Nc2ccc(Cl)cc2)ccc1C(=S)Nc1ccccc1
inactive: [1] 96.6 µM | [3] 18.7 µM | [20] 24.8 µM | [4] 29.3 µM | [5] > 100 µM | [6] > 100 µM | [7] 6.49 µM | [8] > 100 µM | [9] 91.8 µM | [10] 50.6 µM | [11] 48.1 µM | [12] 40.6 µM | [13] 71.1 µM | [14] 20.7 µM | [16] 21.6 µM | [17] 91 µM | [18] 34.9 µM | [19] > 100 µM

O=C1Nc2cccc(Cl)c2/C1=C\c1c(Cl)nc2n1CCS2
inactive: [1] > 100 µM | [2] 60.7 µM | [3] > 100 µM | [4] > 100 µM | [5] > 100 µM | [6] > 100 µM | [7] > 100 µM | [8] > 100 µM | [9] > 100 µM | [10] > 100 µM | [11] > 100 µM | [12] > 100 µM | [13] > 100 µM | [14] > 100 µM | [16] > 100 µM | [17] > 100 µM | [18] 8.43 µM | [19] 89.1 µM

CC1=CC(C)(C)[C@H]2O[C@@]3(O)C[C@]4(C)[C@H]5C[C@@](C(C)C)(O[C@H]4c4ccoc4)O[C@H]4[C@]5(C3)O[C@@]1(O)[C@]24O
inactive: [2] > 100 µM | [3] > 100 µM | [20] 54.2 µM | [4] > 100 µM | [5] 74 µM | [6] > 100 µM | [7] > 100 µM | [8] 45.4 µM | [9] > 100 µM | [10] > 100 µM | [11] > 100 µM | [12] > 100 µM | [13] 81.8 µM | [14] > 100 µM | [15] > 100 µM | [16] 5.26 µM | [17] 18.7 µM | [18] > 100 µM | [19] > 100 µM

COc1ccc2[nH]cc(CCNC(=O)[C@H](Cc3ccc(O)cc3)NC(=O)[C@@H](NCC(F)(F)F)C(C)C)c2c1
inactive: [2] > 100 µM | [3] > 100 µM | [20] 40 µM | [4] 25.2 µM | [5] 74.1 µM | [6] 76 µM | [7] 71.6 µM | [8] > 100 µM | [9] 67.5 µM | [10] 20.1 µM | [11] > 100 µM | [12] 41.9 µM | [13] 65.5 µM | [14] 39.7 µM | [15] 41.8 µM | [16] 26.5 µM | [17] 31 µM | [18] 35.5 µM | [19] > 100 µM

CC(=O)Nc1ccc(C2SCc3nc4ccccc4n32)cc1 (stereo not given)
inactive: [1] 4.91 µM | [2] 22.6 µM | [3] 96.4 µM | [20] 38.4 µM | [4] 63.8 µM | [5] 73.3 µM | [6] 37.7 µM | [7] 66.8 µM | [8] > 100 µM | [9] > 35.7 µM | [10] > 100 µM | [11] 33.5 µM | [12] > 100 µM | [13] > 100 µM | [14] > 100 µM | [16] 66.5 µM | [17] 41.9 µM | [18] 57 µM | [19] > 100 µM

CC(C)CC(NC(=O)C(Cc1ccccc1)NC(=O)C(Cc1ccccc1)NC(=O)OC(C)(C)C)C(=O)OCc1ccccc1 (stereo not drawn) (Boc-Phe-Phe-Leu-OBn; configuration not given here)
inactive: [1] > 100 µM | [2] > 100 µM | [4] > 100 µM | [5] > 100 µM | [6] > 100 µM | [7] > 100 µM | [8] > 100 µM | [9] > 100 µM | [10] > 100 µM | [11] > 100 µM | [12] > 100 µM | [13] > 100 µM | [14] > 100 µM | [15] > 100 µM | [16] > 100 µM | [17] > 100 µM | [18] > 100 µM | [19] > 100 µM
